Test results reported in patent publication US8835421B2, “Benzimidazole linked pyrrolo[2,1-c[1,4] benzodiazepine hybrids as potential antitumour agents and process for the preparation thereof” (Council of Scientific and Industrial Research, priority 2008, dated 2014).

Tests used:
Renal cancer cell lines = experiment: NCI in vitro anticancer screen (SRB, 48 h), renal; type: cell-based, human; conditions: average of six to nine cell lines; for GI50: Homo sapiens, read-out: Log10 GI50 (converted)
Procedure: (§1) Anticancer activity: In vitro biological activity studies were carried out at the National Cancer Institute (USA).
(§2) The compounds were evaluated for in vitro anticancer activity against sixty human tumour cells derived from nine cancer types (leukemia, non-small-cell lung, colon, CNS, melanoma, ovarian, prostate, and breast cancer) as shown in Table 3. For each compound, dose response curves for each cell line were measured at a minimum of five concentrations at 10 fold dilutions. A protocol of 48 h continuous drug exposure was used and a sulforhodamine B (SRB) protein assay was used to estimate cell viability or growth. The concentration causing 50% cell growth inhibition (GI50), total cell growth inhibition (TGI 0% growth) and 50% cell death (LC50, −50% growth) compared with the control was calculated. The mean graph midpoint values of log10 TGI and log10 LC50 as well as log10 GI50 for 8c, 8e, 11a, 11c and 14 are listed in Table 2.
(§3) Each cancer type represents the average of six to nine different cancer cell lines.

[1] = system: Prostate cancer cell lines; experiment: NCI in vitro anticancer screen (SRB, 48 h), prostate; type: cell-based, human; conditions: average of six to nine cell lines; for GI50: Homo sapiens, read-out: Log10 GI50 (converted)
Procedure: as §1, §2, §3

[2] = system: Leukemia cancer cell lines; experiment: NCI in vitro anticancer screen (SRB, 48 h), leukemia; type: cell-based, human; conditions: average of six to nine cell lines; for GI50: Homo sapiens, read-out: Log10 GI50 (converted)
Procedure: as §1, §2, §3

calf thymus DNA (CT-DNA) = experiment: Thermal denaturation studies with duplex-form calf thymus DNA; type: binding; conditions: [PBD]:[DNA] 1:5, CT-DNA 100 μM, ligand 20 μM, sodium phosphate buffer pH 7.00; for ΔTm after incubation at 37° C. for 0 h: 0 h incubation at 37° C.; for ΔTm after incubation at 37° C. for 18 h: 18 h incubation at 37° C.
Procedure: Compounds have been subjected to thermal denaturation studies with duplex-form calf thymus DNA (CT-DNA) using an modification of a reported procedure (Newman, M. S. Carcinog-compr. Surv. 1976, 1, 203; (b) Hecht, S. S.; Loy, M.; Hoffman, Carcinog-compr. Surv. 1976, 1, 325). Working solutions in aqueous buffer (10 mM NaH2PO4/Na2HPO4, 1 mM Na2EDTA, pH 7.00+0.01) containing CT-DNA (100 μm in phosphate) and the PBD (20 μm) have been prepared by addition of concentrated PBD solutions in DMSO to obtain a fixed [PBD]/[DNA] molar ratio of 1:5. The DNA-PBD solutions have been incubated at 37° C. for 0 and 18 h prior to analysis. Samples have been, monitored at 260 nm using a Beckman DU-800 spectrophotometer fitted with high performance temperature controller, and heated at 1° C. min^−1 in the 40-110° C. range. DNA helix→coil transition temperatures (Tm) have been obtained from the maxima in the d(A260)/d T derivative plots. Drug-induced alterations in DNA melting behavior are given by: ΔTm=Tm(DNA+PBD)−Tm(DNA alone), where the Tm value for the PBD-free CT-DNA is 69.1±0.01.
The DNA binding activity for these novel C8-linked benzimidazole-PBD hybrids has been examined by thermal denaturation studies using calf thymus (CT) DNA. […] The data for the compounds 8a-g, 11a-d and 14 is included in Table 1 for comparison.

sixty human tumour cells = experiment: NCI in vitro anticancer screen (SRB, 48 h), mean graph midpoints over all cell lines; type: cell-based; conditions: 48 h continuous drug exposure, SRB assay; for Log10LC50 mean graph midpoint (MG_MID): 50% cell death; for Log10GI50 mean graph midpoint (MG_MID): 50% cell growth inhibition; for Log10TGI mean graph midpoint (MG_MID): total cell growth inhibition
Procedure: as §1, §2

Colon cancer cell lines = experiment: NCI in vitro anticancer screen (SRB, 48 h), colon; type: cell-based, human; conditions: average of six to nine cell lines; for GI50: Homo sapiens, read-out: Log10 GI50 (converted)
Procedure: as §1, §2, §3

[3] = system: Melanoma cancer cell lines; experiment: NCI in vitro anticancer screen (SRB, 48 h), melanoma; type: cell-based, human; conditions: average of six to nine cell lines; for GI50: Homo sapiens, read-out: Log10 GI50 (converted)
Procedure: as §1, §2, §3

[4] = system: Ovarian cancer cell lines; experiment: NCI in vitro anticancer screen (SRB, 48 h), ovarian; type: cell-based, human; conditions: average of six to nine cell lines; for GI50: Homo sapiens, read-out: Log10 GI50 (converted)
Procedure: as §1, §2, §3

Breast cancer cell lines = experiment: NCI in vitro anticancer screen (SRB, 48 h), breast; type: cell-based, human; conditions: average of six to nine cell lines; for GI50: Homo sapiens, read-out: Log10 GI50 (converted)
Procedure: as §1, §2, §3

CNS cancer cell lines = experiment: NCI in vitro anticancer screen (SRB, 48 h), CNS; type: cell-based, human; conditions: average of six to nine cell lines; for GI50: Homo sapiens, read-out: Log10 GI50 (converted)
Procedure: as §1, §2, §3

[5] = system: Non-small-cell-lung cancer cell lines; experiment: NCI in vitro anticancer screen (SRB, 48 h), non-small-cell lung; type: cell-based, human; conditions: average of six to nine cell lines; for GI50: Homo sapiens, read-out: Log10 GI50 (converted)
Procedure: as §1, §2, §3

Structure (SMILES)	ΔTm after incubation at 37° C. for 0 h (calf thymus DNA (CT-DNA)) [°C]	ΔTm after incubation at 37° C. for 18 h (calf thymus DNA (CT-DNA)) [°C]	Log10LC50 mean graph midpoint (MG_MID) (sixty human tumour cells)	Log10GI50 mean graph midpoint (MG_MID) (sixty human tumour cells)	Log10TGI mean graph midpoint (MG_MID) (sixty human tumour cells)	GI50 (Renal cancer cell lines) [µM]	GI50 [1] [µM]	GI50 [2] [µM]	GI50 (Colon cancer cell lines) [µM]	GI50 [3] [µM]	GI50 [4] [µM]	GI50 (Breast cancer cell lines) [µM]	GI50 (CNS cancer cell lines) [µM]	GI50 [5] [µM]	further results
COC(=O)c1ccc2nc(-c3cn(C)c4ccccc34)n(CCCCOc3cc4c(cc3OC)C(=O)N3CCC[C@H]3C=N4)c2c1 [Compound 14, Methyl-1-[(4-(11aS)-7-methoxy-1,2,3,11a-tetrahydro-5H-pyrrolo[2,1-c][1,4]benzodiazepin-5-one-8-yl)oxybutyl]-2-(1-methyl-3-indolyl)benzimidazol-6-carboxylate]	1.5	2.0	−4.92	−6.19	−5.65	–	–	–	–	–	–	–	–	–	Log10 GI50 (Renal cancer cell lines): −6.10 mol/L; Log10 GI50 [1]: −6.62 mol/L; Log10 GI50 [2]: −6.88 mol/L; Log10 GI50 (Colon cancer cell lines): −6.04 mol/L; Log10 GI50 [3]: −6.27 mol/L; Log10 GI50 [4]: −6.04 mol/L; Log10 GI50 (Breast cancer cell lines): −6.14 mol/L; Log10 GI50 (CNS cancer cell lines): −6.00 mol/L; Log10 GI50 [5]: −6.08 mol/L
COc1cc2c(cc1OCCCCCn1c(-c3ccccn3)nc3ccccc31)N=C[C@@H]1CCCN1C2=O [Compound 11b, 7-Methoxy-8-{5-[2-(2-pyridyl)-1H-benzimidazol-1-yl]pentyl}oxy-(11aS)-1,2,3,11a-tetrahydro-5H-pyrrolo[2,1-c][1,4]benzodiazepin-5-one]	1.0	1.2	–	–	–	–	–	–	–	–	–	–	–	–	–
CCOC(=O)c1ccc2nc(-c3ccc(OCc4ccccc4)cc3)n(CCCCCOc3cc4c(cc3OC)C(=O)N3CCC[C@H]3C=N4)c2c1 [Compound 11d, Ethyl-2-[4-(benzyloxy)phenyl]-[(5-(11aS)-7-methoxy-1,2,3,11a-tetrahy-dro-5H-pyrrolo[2,1-c][1,4]benzodiazepin-5-one-8-yl)oxypentyl]-2-benzimidazol-6-carboxylate]	2.0	3.0	–	–	–	–	–	–	–	–	–	–	–	–	–
COc1cc2c(cc1OCCCn1c(-c3cccs3)nc3ccccc31)N=C[C@@H]1CCCN1C2=O [Compound 8d, 7-Methoxy-8-{3-[2-(2-thienyl)-1H-benzimidazol-1-yl]propyl}oxy-(11aS)-1,2,3,11a-tetrahydro-5H-pyrrolo[2,1-c][1,4]benzodiazepin-5-one]	3.9	5.1	–	–	–	–	–	–	–	–	–	–	–	–	–
COc1cc2c(cc1OCCCn1c(-c3cccn3C)nc3ccccc31)N=C[C@@H]1CCCN1C2=O [Compound 8g, 7-Methoxy-8-{3-[2-(1-Methyl-2-pyrrolyl)-1H-benzimidazol-1,4]propyl}-oxy-(11aS)-1,2,3,11a-tetrahydro-5H-pyrrolo[2,1-c][1,4]benzodiazepin-5-one]	2.0	3.1	–	–	–	–	–	–	–	–	–	–	–	–	–
COc1cc2c(cc1OCCCCCn1c(-c3ccc(OCc4ccccc4)cc3)nc3ccc(N4CCOCC4)cc31)N=C[C@@H]1CCCN1C2=O [Compound 11c, 7-Methoxy-8-{5-[2-[(4-(benzyloxy)phenyl)-6-morpholino]benzimidazol-1-yl]pentyl}oxy-(11aS)-1,2,3,11a-tetrahydro-5H-pyrrolo[2,1-c][1,4]benzodiazepin-5-one]	2.9	3.2	−4.24	−5.83	−5.00	0.759	2.19	0.603	2.29	1.55	2.19	1.55	2.69	1.95	–
COc1cc2c(cc1OCCCCCn1c(-c3ccco3)nc3ccccc31)N=C[C@@H]1CCCN1C2=O [Compound 8c, 7-Methoxy-8-{5-[2-(2-furyl)-1H-benzimidazol-1-yl]pentyl}oxy-(11aS)-1,2,3,11a-tetrahydro-5H-pyrrolo[2,1-c][1,4]benzodiazepin-5-one]	5.1	7.0	−4.60	−7.91	−6.89	< 0.012	< 0.0229	< 0.01	< 0.012	< 0.012	< 0.01	< 0.0162	< 0.01	< 0.012	–
COc1cc2c(cc1OCCCCn1c(-c3cccs3)nc3ccccc31)N=C[C@@H]1CCCN1C2=O [Compound 8e, 7-Methoxy-8-{4-[2-(2-thienyl)-1H-benzimidazol-1-yl]butyl}oxy-(11aS)-1,2,3,11a-tetrahydro-5H-pyrrolo[2,1-c][1,4]benzodiazepin-5-one]	0.1	1.0	−4.51	−5.81	−5.18	1.58	1.32	1	1.95	1.58	2	0.912	1.58	2.09	–
COc1cc2c(cc1OCCCCn1c(-c3ccco3)nc3ccccc31)N=C[C@@H]1CCCN1C2=O [Compound 8b, 7-Methoxy-8-{4-[2-(2-furyl)-1H-benzimidazol-1-yl]butyl}oxy-(11aS)-1,2,3,11a-tetrahydro-5H-pyrrolo[2,1-c][1,4]benzodiazepin-5-one]	0.1	1.0	–	–	–	–	–	–	–	–	–	–	–	–	–
COc1cc2c(cc1OCCCn1c(-c3ccccn3)nc3ccccc31)N=C[C@@H]1CCCN1C2=O [Compound 11a, 7-Methoxy-8-{3-[2-(2-pyridyl)-1H-benzimidazol-1-yl]propyl}oxy-(11aS)-1,2,3,11a-tetrahydro-5H-pyrrolo[2,1-c][1,4]benzodiazepin-5-one]	3.0	4.2	−4.42	−5.75	−5.14	1.41	1.35	3.09	1.91	2.19	1.62	1.05	2.51	1.58	–
COc1cc2c(cc1O)N=CC1CCCN1C2=O (centres unmarked) [DC-81, reference compound]	0.3	0.7	–	–	–	–	–	–	–	–	–	–	–	–	–
COc1cc2c(cc1OCCCn1c(-c3ccco3)nc3ccccc31)N=C[C@@H]1CCCN1C2=O [Compound 8a, 7-Methoxy-8-{3-[2-(2-furyl)-1H-benzimidazol-1-yl]propyl}oxy-(11aS)-1,2,3,11a-tetrahydro-5H-pyrrolo[2,1-c][1,4]benzodiazepin-5-one]	5.1	6.1	–	–	–	–	–	–	–	–	–	–	–	–	–
COc1cc2c(cc1OCCCCCn1c(-c3cccs3)nc3ccccc31)N=C[C@@H]1CCCN1C2=O [Compound 8f, 7-Methoxy-8-{5-[2-(2-thienyl)-1H-benzimidazol-1-yl]pentyl}oxy-(11aS)-1,2,3,11a-tetrahydro-5H-pyrrolo[2,1-c][1,4]benzodiazepin-5-one]	6.1	6.1	–	–	–	–	–	–	–	–	–	–	–	–	–
